Source: patent US20220389006A1, “SALTS AND FORMS OF AN ESTROGEN RECEPTOR MODULATOR” (Recurium IP Holdings, LLC, priority 2019, published 2022)
Read-outs that look alike come from different tables or passages of the source.

How the values were obtained:
[1] = TGA of samples heated to 150° C. (FIG. 34); type: physicochemical
Experimental: FIG. 34 provides a TGA thermogram for (1) Form A for a sample heated to 150° C., and (2) a sample initially dried under vacuum for 3 hours at 40° C.
(§1) Form A retains its crystallinity to a temperature of about 150° C. […] In addition, Form A can be heated to at least to 100° C. that can allow for the removal of any trapped solvent without erosion of purity, which can be beneficial. The purity of initial Form A, Form A after being heated to 100° C., and Form A after being heated to 150° C. are shown.
TGA data were collected using a TA Discovery 5500 TGA from TA Instruments. DSC was performed using a TA Discovery 2500 DSC from TA Instruments.

[2] = system: MCF7; experiment: Breast Cancer Cell Proliferation Assay (MCF-7); type: cell-based; details: 5 days of compound exposure, Cell Titer-Glo
Experimental: MCF7 was expanded and maintained in the medium (Phenol red free DMEM/F12 (Hyclone SH30272.01) NEAA (Gibco 11140-050) Na-pyruvate (Gibco 11360-070) and Re-stripped Charcoal stripped FBS (Gemini 100-119)). The cells were adjusted to a concentration of 3,000 cells per mL in the above media, and the cells were incubated (37° C., 5% CO2). The following day a 10 point, serial dilution of compounds was added to the cells at a final concentration ranging from 10-0.000005 μM for the test compounds (17β-estradiol was used as a control). Additional cells were plated in 30 wells to serve as the day 1 (pretreatment) comparison. After 5 days of compound exposure, Cell Titer-Glo reagent was added to the cells, and the relative luminescence units (RLUs) of each well was determined. Cell Titer-Glo was also added to 32 μL of medium without cells to obtain a background value. The plates were allowed to incubate at room temperature for 10 minutes to stabilize luminescent signal, and the luminescence signal was recorded with EnSpire. The relative increase in cell number of each sample is determined as follows: (RLU sample-RLU background/RLU estrogen only treated cells-RLU background)×100=% inhibition.

[3] = Crystallinity / form change upon heating (XRPD); type: physicochemical
Excerpt: For XRPD analysis, PANalytical X'Pert3 X-ray powder diffractometer was used.

[4] = HPLC purity before and after heating to 100° C. and 150° C.; type: physicochemical
Experimental: as §1

[5] = Crystallinity before and after grinding (XRPD, FIG. 38); type: physicochemical; details: for crystallinity after grinding: grinding with a mortar and pestle for approximately 5 minutes, XRPD FIG. 38
Excerpt: (§2) As shown by the top spectrum, the sharp peaks of the HCl salt of Compound A have flattened out compared to the bottom spectrum. […] The data provide in Table 4 further supports the conclusion that Form A maintains its crystallinity compared to the mesylate salt of Compound A.

[6] = Solid-state storage stability of free base Form I at 5, 40 and 60° C. (HPLC); type: physicochemical; details: for Area % of A / Purity vs. Initial %: HPLC
Experimental: Form I was stable in its solid state at 5° C. for 7 days, but degraded upon storage at 40° C. and 60° C.
In Table 1, “A” represents Compound A, and the data was obtained via HPLC.

[7] = Crystallinity during sample preparation (XRPD, FIG. 37); type: physicochemical
Excerpt: FIG. 37 provides a representative XRPD pattern of a second HCl salt of Compound A (prior to sample preparation and after re-preparation of the sample).
as §2

With `CC1Cc2c([nH]c3ccccc23)C(c2c(F)cc(C=CC(=O)O)cc2F)N1C12CC(C1)C2.O=S(=O)(O)O` (centres unmarked) [Form A] the “degradation (FIG. 34)” value ([1]; sample heated directly to 150 C) was 4.47%, the “degradation (FIG. 34)” value ([1]; sample heated to a lower temperature (<100° C.) and then to 150° C.) was 3.54% and the IC50 [2] was 0.2 nM. The Form change ([3]; Heated to 100° C.) was “No”, the Form change ([3]; Heated to 150° C.) was “No” and the “temperature to which crystallinity is retained” value ([3]; XRPD, FIG. 31) was “about 150 °C”. For the same compound, the “HPLC peak No. 2, RRT 0.55 (degradation)” value ([4]; After heating to 100° C.) was 0.67, the “HPLC peak No. 3, RRT 0.59 (degradation)” value ([4]; After heating to 100° C.) was under 0.05 and the “HPLC peak No. 5, RRT 0.90 (degradation)” value ([4]; After heating to 100° C.) was under 0.05. The “HPLC peak No. 6, RRT 0.94 (degradation)” value ([4]; After heating to 100° C.) was under 0.05, the “HPLC peak No. 8, RRT 0.97 (degradation)” value ([4]; After heating to 100° C.) was under 0.05 and the “HPLC peak No. 9, RRT 1.00 (Compound A), purity” value ([4]; After heating to 100° C.) was 99.07. For the same compound, the “HPLC peak No. 2, RRT 0.55 (degradation)” value ([4]; After heating to 150° C.) was 0.76, the “HPLC peak No. 3, RRT 0.59 (degradation)” value ([4]; After heating to 150° C.) was 0.18 and the “HPLC peak No. 5, RRT 0.90 (degradation)” value ([4]; After heating to 150° C.) was 0.21. For the same compound, the “HPLC peak No. 6, RRT 0.94 (degradation)” value ([4]; After heating to 150° C.) was 0.16, the “HPLC peak No. 8, RRT 0.97 (degradation)” value ([4]; After heating to 150° C.) was 0.24 and the “HPLC peak No. 9, RRT 1.00 (Compound A), purity” value ([4]; After heating to 150° C.) was 97.98. The heat-promoted degradation ([4]; HPLC, heated to 100° C. and 150° C.) was “resistant to heat-promoted degradation”, the “Purity (area %)” value ([4]; Heated to 100° C.) was 99.1 area % and the “Purity (area %)” value ([4]; Heated to 150° C.) was 98.0 area %. The “Purity (area %)” value ([4]; Initial) was 99.1 area %, the “HPLC peak No. 2, RRT 0.55 (degradation)” value ([4]; Initial (before heating)) was 0.67 and the “HPLC peak No. 3, RRT 0.59 (degradation)” value ([4]; Initial (before heating)) was under 0.05. The “HPLC peak No. 5, RRT 0.90 (degradation)” value ([4]; Initial (before heating)) was under 0.05, the “HPLC peak No. 6, RRT 0.94 (degradation)” value ([4]; Initial (before heating)) was under 0.05 and the “HPLC peak No. 8, RRT 0.97 (degradation)” value ([4]; Initial (before heating)) was under 0.05. The “HPLC peak No. 9, RRT 1.00 (Compound A), purity” value ([4]; Initial (before heating)) was 99.07, the Crystallinity ([5]; After grinding for 5 mins.) was “Decreased crystallinity” and the Crystallinity ([5]; Initial) was “Crystalline”. The “crystallinity after grinding” value [5] was “maintain its crystallinity”, the “stability after one week” value (25° C. and 60% relative humidity) was “stable” and the “stability after one week” value (40° C. and 75% relatively humidity) was “stable”.
In the case of `CC1Cc2c([nH]c3ccccc23)C(c2c(F)cc(C=CC(=O)O)cc2F)N1C12CC(C1)C2` (centres unmarked) [Form I], the “stability in solid state” value ([6]; 5° C. for 7 days) is reported as “stable”, the “Area % of A” value ([6]; 5° C., 1 Day) is reported as 98.24% and the “Purity vs. Initial %” value ([6]; 5° C., 1 Day) is reported as 99.8%. For the same compound, the “Area % of A” value ([6]; 5° C., 3 Days) was 98.09%, the “Purity vs. Initial %” value ([6]; 5° C., 3 Days) was 99.6% and the “Area % of A” value ([6]; 5° C., 7 Days) was 98.14%. The “Purity vs. Initial %” value ([6]; 5° C., 7 Days) was 99.7%, the “Area % of A” value ([6]; 40° C., 1 Day) was 97.60% and the “Purity vs. Initial %” value ([6]; 40° C., 1 Day) was 99.1%. The “Area % of A” value ([6]; 40° C., 3 Days) was 96.79%, the “Purity vs. Initial %” value ([6]; 40° C., 3 Days) was 98.3% and the “Area % of A” value ([6]; 40° C., 7 Days) was 96.18%. The “Purity vs. Initial %” value ([6]; 40° C., 7 Days) was 97.7%, the “Area % of A” value ([6]; 60° C., 1 Day) was 93.42% and the “Purity vs. Initial %” value ([6]; 60° C., 1 Day) was 94.9%. The “Area % of A” value ([6]; 60° C., 3 Days) was 88.31%, the “Purity vs. Initial %” value ([6]; 60° C., 3 Days) was 89.7% and the “Area % of A” value ([6]; 60° C., 7 Days) was 80.95%. The “Purity vs. Initial %” value ([6]; 60° C., 7 Days) was 82.2%, the degradation ([6]; after 7 days at 40° C.) was “approximately 2%” and the degradation ([6]; after 7 days at 60° C.) was “approximately 18%”. The crystallinity upon heating ([3]; XRPD, FIG. 30 (initially, after 1, 3 and 7 days)) was “lose crystallinity”.
With `C[C@@H]1Cc2c([nH]c3ccccc23)[C@@H](c2c(F)cc(/C=C/C(=O)O)cc2F)N1C12CC(C1)C2` [Free base of Compound A, (E)-3-(4-((1R,3R)-2-(Bicyclo[1.1.1]pentan-1-yl)-3-methyl-2,3,4,9-tetrahydro-1H-pyrido[3,4-b]indol-1-yl)-3,5-difluorophenyl)acrylic acid] the IC50 ([2]; Homo sapiens, MCF7, 120 h) was 0.4 nM.
In the case of `CC1Cc2c([nH]c3ccccc23)C(c2c(F)cc(C=CC(=O)O)cc2F)N1C12CC(C1)C2.Cl` (centres unmarked) [HCl salt of Compound A], the “crystallinity during sample preparation” value [7] is reported as “variable crystallinity”.
With `CC1Cc2c([nH]c3ccccc23)C(c2c(F)cc(C=CC(=O)O)cc2F)N1C12CC(C1)C2.CS(=O)(=O)O` (centres unmarked) [Mesylate salt of Compound A] the Form change ([3]; Heated to 100° C.) was “No”, the Form change ([3]; Heated to 150° C.) was “No” and the “Purity (area %)” value ([4]; Heated to 100° C.) was 98.4 area %. For the same compound, the “Purity (area %)” value ([4]; Heated to 150° C.) was 97.1 area %, the “Purity (area %)” value ([4]; Initial) was 98.4 area % and the Crystallinity ([5]; After grinding for 5 mins.) was “Amorphous”. For the same compound, the Crystallinity ([5]; Initial) was “Crystalline” and the “crystallinity after grinding” value [5] was “loss of crystallinity”.
